Earlier results on ten compounds are cited in patent US20250313903A1, “NEOANTIGEN IMMUNOTHERAPY” (Gradalis, Inc., priority 2023, published 2025).

Like-named read-outs stand apart in the source and are kept apart here.

For series [1], the system named is advanced renal cell carcinoma. The conditions noted are these: Avelumab + Axitinib vs. sunitinib.
Series [2] deals with chemo-refractory, metastatic Merkel cell carcinoma.
Series [3] relates to advanced urothelial carcinoma, 2nd line setting. The conditions noted are these: in vivo.
In series [4] the test system is stage III-IV ovarian cancer.
Series [5] concerns metastatic NSCLC, 2nd line post platinum-based chemotherapy. To be noted: regardless of PD-L1 expression or histology.
Series [6] concerns extensive stage SCLC, 1st line setting. The conditions noted are these: atezolizumab added to carboplatin and etoposide, vs. placebo.
Series [7] relates to triple-negative breast cancer. To be noted: PD-L1 (TPS) ≥1% cut-off.
Series [8] relates to newly diagnosed stage III/IV ovarian cancer.
Series [9] concerns previously treated, PD-L1 positive, advanced NSCLC. To be noted: in vivo.
In series [10] the test system is newly diagnosed advanced high-grade ovarian cancer.
Series [11] concerns recurrent or metastatic head and neck squamous cell cancer. The conditions noted are these: first-line; monotherapy for CPS ≥1% or with chemotherapy.
Series [12] relates to untreated, PD-L1 ≥50 advanced NSCLC. To be noted: vs. chemotherapy.
The test system of series [13] is unresectable or metastatic, untreated melanoma. The conditions noted are these: for 24-months OS / 24-months PFS: PD-L1 ≥1%; for 1-year OS / PFS (1-year PFS in Table 3): in vivo.
Series [14] deals with advanced non-colorectal dMMR tumors. The conditions noted are these: in vivo.
For series [15], the system named is refractory classical Hodgkin's lymphoma. The conditions noted are these: in vivo.
The subject of series [16] is persistent/recurrent or metastatic cervical cancer with PD-L1 CPS ≥1. To be noted: pembrolizumab vs. placebo + paclitaxel/platinum +/- bevacizumab.
In series [17] the test system is unresectable/metastatic urothelial cancer, cisplatin-ineligible. The conditions noted are these: 1st line, CPS ≥10.
Series [18] relates to MSI-H, dMMR or TMB-H solid tumors.
The test system of another series is NSCLC. To be noted: irrespective of PD-L1 status.
Series [19] relates to unresectable/metastatic urothelial cancer; 2nd line. The conditions noted are these: for median OS: vs. chemotherapy.
Series [20] concerns refractory/relapse primary mediastinal large B-cell lymphoma. To be noted: in vivo.
Series [21] has as its system untreated, non-squamous NSCLC without sensitizing mutations. The conditions noted are these: pembrolizumab plus chemotherapy vs. chemotherapy.
Series [22] has as its system unresectable, previously treated, late-stage melanoma. The conditions noted are these: 3 mg/kg every 3 weeks, alone or with gp100.
Series [23] has as its system untreated unresectable/metastatic melanoma. The conditions noted are these: combination vs. ipilimumab alone.
For series [24], the system named is lymph-node positive or metastatic melanoma after complete resection. To be noted: adjuvant.
Series [25] concerns locally advanced, metastatic squamous cell carcinoma.
For series [26], the system named is recurrent or metastatic cervical cancer after platinum-based chemotherapy. The conditions noted are these: vs. investigator-choice chemotherapy.
The test system of series [27] is Stage IIIb/IV newly diagnosed ovarian cancer. To be noted: follow up at 74 months.
For series [28], the system named is advanced/metastatic urothelial carcinoma, platinum-refractory.
Series [29] concerns advanced renal cell cancer. The conditions noted are these: in vivo.

Avelumab: PD-L1 blocking antibody: in [1] (PD-L1+), the ORR is listed as 55.2% and the “median PFS” value was 13.8 months. In series [1] (overall population), the “median PFS” value is “median PFS: 13.8”. For the same compound, in [2] (in vivo), the “CR, patients” value was 8/88 and the “ORR, responders/patients” value is reported as 28/88. Also, in [2] (regardless of PD-L1), the ORR entry is “ORR: 31.8%”. In series [3], the “24-month OS” value is on record as “OS: 20.1%”, the CR is reported as 4.1%, the ORR entry was “ORR: 16.5%; CR:” and the PR is 12.4%. Also, in [3], the “median DoR” value is listed as “Median DoR: 20.5 months”, the “median OS” value is “Median OS: 7.0 months” and the “median PFS” value is “Median PFS: 1.6 months”. Besides, the “PFS HR vs. chemotherapy alone” value in series [4] (avelumab in combination with chemotherapy) is recorded as 1.14. The “median PFS” value in [4] (avelumab only group) is on record as 16.8 months. In addition, the “median PFS” value in [4] (combination with chemotherapy) is 18.1 months. Besides, the “PFS HR vs. chemotherapy alone” value in [4] (single agent avelumab maintenance) is 1.43.
With Atezolizumab: PD-L1 blocking antibody, the “OS (in words)” value in series [5] and in series [7] was “OS benefit” throughout. The “median OS” value in series [6] is reported as “Median OS: 12.3 months”; in series [6] (listed as atezolizumab), 12.3 months. Further, the “median PFS” value was “Median PFS: 5.2 months” in [6]; 5.2 months in series [6] (listed as atezolizumab); 19.5 months in series [8] (atezolizumab with carboplatin plus paclitaxel and bevacizumab). For the same compound, the “PFS HR vs. placebo arm” value is 0.82 in [8] (HRP subgroup); 0.80 in series [8] (PD-L1+ patients); 0.92 in [8] (with carboplatin plus paclitaxel and bevacizumab). The PFS in series [8] (PD-L1+ patients) is recorded as 20.8 months.
As to `CC(=O)O[C@@]12CO[C@@H]1C[C@H](O)[C@@]1(C)C(=O)[C@H](O)C3=C(C)[C@@H](OC(=O)[C@H](O)[C@@H](NC(=O)OC(C)(C)C)c4ccccc4)C[C@@](O)([C@@H](OC(=O)c4ccccc4)[C@H]21)C3(C)C` [docetaxel], the OS in series [9] is 8.5 months.
Consider `CNCc1ccc(-c2[nH]c3cc(F)cc4c3c2CCNC4=O)cc1` [rucaparib], for which the figures for the PFS in series [10] (BRCA-wt/LOH low patients) and in series [10] (in vivo) were 12.1 months and 20.2 months, respectively.
For “Pembrolizumab: fully humanized IgG4 antibody targeting PD-1”, the figures for the OS in series [11] and in [9] were 12.3 months and 10.4 months, respectively. For the same compound, the responding tumors with metastatic NSCLC (PD-L1 negative tumors) is recorded as 15%. Besides, the results for the response rate (in the series on metastatic NSCLC (PD-L1 positivity); in series [15]; in series [20]) were 45%, 69% and 45%, respectively. Besides, the “6-months OS” value in series [12] is listed as 80.2% vs. 72.4%;; in [12] (listed as pembrolizumab), 80.2%. Besides, the ORR result in [12] was “ORR: 44.8% vs. 27.8%”; in series [12] (listed as pembrolizumab) it was 44.8%; in series [17], “ORR: 38%”; in series [17] (listed as pembrolizumab), 38%; in series [18] (MSI-H or dMMR solid tumors) it was “studies: ORRs ~40%”; in [18] (MSI-H or dMMR solid tumors, listed as pembrolizumab), about 40%. For the same compound, the ORR in [18] (TMB-H patients (Keynote-158)) was 29%; in [18] (TMB-low patients (Keynote-158)), 6%. Also, the “median PFS” value in [12] is reported as “Median PFS: 10.3 months”; in [12] (listed as pembrolizumab), 10.3 months; in series [16], “Median PFS: 10.4 months”; in [21], “Median PFS: 19.0 months”; in [21] (listed as pembrolizumab), 19 months. The “24-months OS” value in series [13] is listed as 58%. In addition, the “24-months PFS” value in series [13] is listed as 33%. Moreover, the “ORR across tumor types” value in [14] is listed as 34%. Further, the “complete response, patients” value in series [14] is reported as 10%. For the same compound, the complete response in [15] was 22%. Besides, the “median duration of response” value in series [15] was 11 months. In series [16], the “median DOR” value was 18 vs. 10.4 months. Besides, the “ORR, responders/patients” value is given as 43/90 in series [18] (90 patients with advanced endometrial cancer) and 12/98 in [18] (98 patients with advanced cervical cancer). The “response rate, PFS and OS vs. chemotherapy (in words)” value in the series on NSCLC was “consistent response rate, PFS and OS advantage”. Also, the “OS benefit compared to chemotherapy” value in [19] (in vivo) is on record as 3 months. Also, the “median OS” value in series [19] is “Median OS: 10.3 months”; in series [19] (listed as pembrolizumab), 10.3 months. Further, the complete response rate in series [20] is listed as 13%. Further, the “PFS HR” value in series [21] is listed as “(HR: 0.53; p = 0.0049)”.
“ipilimumab: FDA approved CTLA-4 inhibitor”: in series [13], the “24-months OS” value is 45%, the “24-months PFS” value is on record as 13%, the “1-year OS” value is reported as 58.2% and the “PFS (1-year PFS in Table 3)” value is 26.5%. In series [13] (listed as Ipilimumab), the “1-year OS” value is given as “(vs. 58.2%;” and the “PFS (1-year PFS in Table 3)” value was 26.5%; p < 0.001);. In addition, the “OS vs. gp100 alone (in words)” value in [22] is on record as “OS advantage”. Further, the “median PFS” value in series [23] is given as 4.4 months. Further, in series [24], the “12-month RFS” value is given as 60.8%.
Take Cemiplimab: in series [25] (Phase 1 expansion cohorts), the ORR is listed as 50%. Moreover, in series [25] (Phase 2 metastatic-disease cohort), the response rates was 47. In addition, in series [26], the ORR entry is on record as “ORR: 16.4% vs. 6.3%”; the “median OS” value was “Median OS: 12.0 months”; the “median PFS: HR” value was 0.75, p < 0.001.
For `NC(=O)c1cccc2cn(-c3ccc([C@@H]4CCCNC4)cc3)nc12` [niraparib], the “OS HR” value in [27] (HRP) was 0.93; in [27] (overall) it was 1.01.
For the compound Durvalumab: PD-L1 blocking antibody, the ORR in series [28] (PD-L1 negative) is given as 0% (PD-L1 negative); in [28] (PD-L1 negative, listed as durvalumab), “none”; in series [28] (PD-L1 positive) it was “patients), 46.4%”; in series [28] (PD-L1 positive, listed as durvalumab), 46.4%; in series [28] (all patients) it was “ORR: 31% (all”; in series [28] (all patients, listed as durvalumab), 31%.
Take `CO[C@H]1C[C@@H]2CC[C@@H](C)[C@@](O)(O2)C(=O)C(=O)N2CCCC[C@H]2C(=O)O[C@H]([C@H](C)C[C@@H]2CC[C@@H](OCCO)[C@H](OC)C2)CC(=O)[C@H](C)/C=C(\C)[C@@H](O)[C@@H](OC)C(=O)[C@H](C)C[C@H](C)/C=C/C=C/C=C/1C` [everolimus]: the OS in [29] is given as 19.6 months.
